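Five compound concentrations were applied to cells in 96-well plates for 48 hours; endpoints were derived by simple linear interpolation of the resulting dose-response curve. GI50 is the concentration that inhibits growth by half.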 Active and inactive are the calls of the source. No stated cut-off is given here; in the data, active = GI50 up to about 1.1 µM and inactive = higher.
Assays:
Test in all cases: DTP human tumour cell line panel, 48 h
[1] = test system: HCT-116
[2] = test system: EKVX
[3] = test system: OVCAR-5
[4] = test system: HCT-15
[5] = test system: PC-3
[6] = test system: HT-29
[7] = test system: SN12C
[8] = test system: Hs-578T
[9] = test system: DU-145
[10] = test system: 786-0
[11] = test system: SK-MEL-5
[12] = test system: ACHN
[13] = test system: RPMI-8226
[14] = test system: COLO 205
[15] = test system: MDA-N
[16] = test system: SW-620
[17] = test system: SR
[18] = test system: SNB-75
[19] = test system: SK-MEL-28

SMILES | GI50 [1] | GI50 [2] | GI50 [3] | GI50 [4] [µM] | GI50 [5] | GI50 [6] | GI50 [7] | GI50 [8] | GI50 [9] | GI50 [10] | GI50 [11] | GI50 [12] | GI50 [13] | GI50 [14] | GI50 [15] | GI50 [16] | GI50 [17] | GI50 [18] | GI50 [19]
O=c1[nH]nc(-c2ccccc2)c2[nH]c3c(c12)CCCc1ccccc1-3 | 13.2 µM (inactive) | 10.6 µM (inactive) | 18.7 µM (inactive) | 2.34 | 14.9 µM (inactive) | 11.3 µM (inactive) | 16.6 µM (inactive) | 17 µM (inactive) | 17.6 µM (inactive) | 14.2 µM (inactive) | 12.4 µM (inactive) | 11.9 µM (inactive) | 11.5 µM (inactive) | 9.79 µM (inactive) | 12.5 µM (inactive) | 19.1 µM (inactive) | 15.1 µM (inactive) | – | –
Clc1ccc(CNc2nc(Cl)c3nc[nH]c3n2)cc1Cl | 15.9 µM (inactive) | 25.2 µM (inactive) | > 100 µM (inactive) | 27 | 21.6 µM (inactive) | 26.4 µM (inactive) | 21.6 µM (inactive) | 21 µM (inactive) | 19 µM (inactive) | 27.7 µM (inactive) | 16.7 µM (inactive) | 31.2 µM (inactive) | – | 22.6 µM (inactive) | 26.4 µM (inactive) | – | 26.5 µM (inactive) | 32.1 µM (inactive) | –
COC(=O)C(CNC(=O)/C=C/c1ccc(OC(C)=O)c(OC(C)=O)c1)NC(=O)/C=C/c1ccc(OC(C)=O)c(OC(C)=O)c1 (stereo not drawn) | > 100 µM (inactive) | > 100 µM (inactive) | > 100 µM (inactive) | > 100 | > 100 µM (inactive) | > 100 µM (inactive) | > 100 µM (inactive) | > 100 µM (inactive) | > 100 µM (inactive) | > 100 µM (inactive) | > 100 µM (inactive) | > 100 µM (inactive) | > 100 µM (inactive) | > 100 µM (inactive) | > 100 µM (inactive) | > 100 µM (inactive) | 92.9 µM (inactive) | – | > 100 µM (inactive)
CO/C=C(/C(=O)OC)c1ccccc1[C@H]1C[C@@H]1c1ccccc1 | 17.4 µM (inactive) | 15.4 µM (inactive) | 73.8 µM (inactive) | 23.4 | 22.8 µM (inactive) | 18.6 µM (inactive) | 28.6 µM (inactive) | 33.7 µM (inactive) | 27.2 µM (inactive) | 31.7 µM (inactive) | 8.02 µM (inactive) | 22.5 µM (inactive) | 12.6 µM (inactive) | 14 µM (inactive) | 18.7 µM (inactive) | – | 14.2 µM (inactive) | – | 25.8 µM (inactive)

Source: ChEMBL document CHEMBL1201862, “PubChem BioAssay data set” (2004)
